Experimental findings from paper PMC6522510 (Nature Communications, 2019) are described below.

One experiment has as its system ML-2. Put plainly: cells. To be noted: Homo sapiens, ML-2, 72 h, read-out: ML-2. Further details: species or system AML cell lines (8); Secondary HTS, 10-point dose-response in triplicate, Cell Titer Glo viability, four-parameter fit EC50.
The subject of experiment [1] is U937. Put plainly: cells. Further details: species or system AML cell lines (8); Secondary HTS, 10-point dose-response in triplicate, Cell Titer Glo viability, four-parameter fit EC50. To be noted: Homo sapiens, U-937, 72 h, read-out: U937.
A further experiment has as its system CMS. Put plainly: cells. Further details: species or system AML cell lines (8); Secondary HTS, 10-point dose-response in triplicate, Cell Titer Glo viability, four-parameter fit EC50. To be noted: 72 h, read-out: CMS.
In the next experiment the test system is M07e. Put plainly: cells. Further details: species or system AML cell lines (8); Secondary HTS, 10-point dose-response in triplicate, Cell Titer Glo viability, four-parameter fit EC50. To be noted: M-07e, 72 h, read-out: M07e.
The subject of experiment [2] is MV4-11. Put plainly: cells. Further details: species or system AML cell lines (8); Secondary HTS, 10-point dose-response in triplicate, Cell Titer Glo viability, four-parameter fit EC50. To be noted: Homo sapiens, MV4-11, 72 h, read-out: MV4-11.
The subject of experiment [3] is CHRF288-11. As to the kind of experiment: cells. Further details: species or system AML cell lines (8); Secondary HTS, 10-point dose-response in triplicate, Cell Titer Glo viability, four-parameter fit EC50. To be noted: 72 h, read-out: CHRF288-11.
A further experiment has as its system CMK. As to the kind of experiment: cells. Further details: species or system AML cell lines (8); Secondary HTS, 10-point dose-response in triplicate, Cell Titer Glo viability, four-parameter fit EC50. To be noted: Homo sapiens, CMK, 72 h, read-out: CMK.
Experiment [4] concerns MOLM-13. As to the kind of experiment: cells. To be noted: Homo sapiens, MOLM-13, 72 h, read-out: MOLM-13. Further details: species or system AML cell lines (8); Secondary HTS, 10-point dose-response in triplicate, Cell Titer Glo viability, four-parameter fit EC50.
Experiment [5] relates to MV4-11. As to the kind of experiment: Secondary dose-response HTS, Cell Titer Glo. To be noted: Homo sapiens; secondary high-throughput screen; MV4-11; read-out: average effective concentration, MV4-11. The format is cell-based, human.
In experiment [6] the test system is U937. Put plainly: Secondary dose-response HTS, Cell Titer Glo. The format is cell-based, human. To be noted: Homo sapiens, U-937; secondary high-throughput screen; U937; read-out: average effective concentration, U937.
Experiment [7] concerns MOLM-13. As to the kind of experiment: Secondary dose-response HTS, Cell Titer Glo. The format is cell-based, human. To be noted: Homo sapiens; secondary high-throughput screen; MOLM-13; read-out: average effective concentration, MOLM-13.
Experiment [8] relates to CHRF288-11. As to the kind of experiment: Secondary dose-response HTS, Cell Titer Glo. The format is cell-based, human. To be noted: Homo sapiens, HTS; secondary high-throughput screen; CHRF288-11; read-out: average effective concentration, CHRF288-11. (In general: In ATP-based viability assays light output follows the ATP content of the culture.)

Where only a bound is given, the exact number is not on record here.

For `OC[C@H]1NC[C@H](O)[C@@H](O)[C@H]1O`, the EC50 in the experiment on ML-2, in the experiment with U937 [1], in the experiment with CMS, in the experiment on M07e, in the experiment on MV4-11 [2] and with CHRF288-11 [3] was greater than 10 µM in each case. For the same molecule, the EC50 in the experiment on CMK and in the experiment with MOLM-13 [4] was greater than 10 µM each time.
As to `CC1=C(CC(=O)O)c2cc(F)ccc2/C1=C\c1ccc([S+](C)[O-])cc1` (stereo not shown), the EC50 in the experiment with ML-2, in the experiment on U937 [1], in the experiment with CMS, in the experiment on M07e, in the experiment with MV4-11 [2] and in the experiment with CHRF288-11 [3] was greater than 10 µM each time. Moreover, the EC50 in the experiment on CMK and with MOLM-13 [4] was greater than 10 µM throughout.
For the molecule `C=C1C(=O)O[C@@H](CCC)[C@@H]1C(=O)O` (racemic) [SJ000784258, BUTYROLACTONE 3], the EC50 with ML-2, with U937 [1], in the experiment with CMS, with M07e, with MV4-11 [2] and with CHRF288-11 [3] was greater than 10 µM in each case. For the same molecule, the EC50 with CMK was greater than 10 µM; in the experiment with MOLM-13 [4], 1.8 µM.
As to `COc1ccc(C[C@H](NC(=O)[C@H](C)NC(=O)CN2CCOCC2)C(=O)N[C@@H](Cc2ccccc2)C(=O)C2(C)CO2)cc1` (stereo in doubt) [SJ000834147, ONX-0914], the EC50 with ML-2 came out at 0.0426 µM; in the experiment on U937 [1], 0.134 µM; in the experiment on CMS it was 0.11 µM; in the experiment with M07e, 0.0789 µM; in the experiment with MV4-11 [2] it was 0.046 µM; in the experiment with CHRF288-11 [3] it was 0.169 µM. In addition, the EC50 in the experiment on CMK is 0.23 µM; with MOLM-13 [4], 0.0727 µM.
Regarding `C=C1CCCC2(C)C[C@H]3OC(=O)C(=C)[C@H]3CC12` (stereo in doubt) [SJ000834159, ISOHELENIN], the EC50 in the experiment on ML-2 was 6.6 µM; in the experiment with U937 [1], 8.2 µM; in the experiment with CMS it was 5.4 µM; in the experiment on M07e it was greater than 10 µM; with MV4-11 [2], greater than 10 µM; with CHRF288-11 [3] it was 6.7 µM. In addition, the EC50 in the experiment with CMK turned out to be 5.2 µM; in the experiment on MOLM-13 [4] it was 5.9 µM.
Regarding `CCC1(c2ccc(N)cc2)CCC(=O)NC1=O` (stereo not shown) [AMINOGLUTETHIMIDE], the EC50 with ML-2, with U937 [1], in the experiment with CMS, in the experiment on M07e, with MV4-11 [2] and in the experiment with CHRF288-11 [3] was greater than 10 µM in each case. For the same molecule, the EC50 in the experiment with CMK and with MOLM-13 [4] was greater than 10 µM each time.
On to `S=C(NCc1ccc2c(c1)OCO2)N1CCN(c2ncnc3c2oc2ccccc23)CC1` [AMUVATINIB], for which the EC50 in the experiment with ML-2, with U937 [1], with CMS, in the experiment with M07e, in the experiment on MV4-11 [2] and in the experiment with CHRF288-11 [3] was greater than 10 µM throughout. Moreover, the EC50 with CMK and with MOLM-13 [4] was greater than 10 µM each time.
With `CC(C)(C#N)c1cc(Cn2cncn2)cc(C(C)(C)C#N)c1` [ANASTROZOLE], the EC50 in the experiment with ML-2, in the experiment with U937 [1], with CMS, in the experiment on M07e, in the experiment with MV4-11 [2] and in the experiment with CHRF288-11 [3] was greater than 10 µM in each case. Also, the EC50 in the experiment on CMK and in the experiment on MOLM-13 [4] was greater than 10 µM throughout.
Turning to `CC(C)c1c(C(=O)Nc2ccccc2)c(-c2ccccc2)c(-c2ccc(F)cc2)n1CC[C@@H](O)C[C@@H](O)CC(=O)O` [ATORVASTATIN], the EC50 in the experiment with ML-2, in the experiment with CMS, with M07e, with CMK, with MV4-11 [5] and with U937 [6] was greater than 10 µM in each case. Further, the EC50 in the experiment with MOLM-13 [7] and in the experiment on CHRF288-11 [8] was greater than 10 µM each time.
For the molecule `Cc1cc([C@@H](C)Nc2ccccc2C(=O)O)c2nc(N3CCOCC3)cc(=O)n2c1` [AZD6482], the EC50 in the experiment with ML-2, with U937 [1], with CMS, in the experiment on M07e, with MV4-11 [2] and in the experiment with CHRF288-11 [3] was greater than 10 µM in each case. Also, the EC50 in the experiment with CMK and in the experiment on MOLM-13 [4] was greater than 10 µM in each case.
For the molecule `C[C@H]1C[C@H]2[C@@H]3CCC4=CC(=O)C=C[C@]4(C)[C@@]3(F)[C@@H](O)C[C@]2(C)[C@@]1(O)C(=O)CO` [BETAMETHASONE], the EC50 with ML-2, in the experiment with U937 [1], in the experiment with CMS, in the experiment with M07e, in the experiment with MV4-11 [2] and in the experiment on CHRF288-11 [3] was greater than 10 µM in each case. For the same molecule, the EC50 with CMK and in the experiment on MOLM-13 [4] was greater than 10 µM each time.
As for `Cc1nc(C(=O)NCC(=O)O)c(O)c2ccc(Oc3ccccc3)cc12` [FG-4592], the EC50 in the experiment on ML-2, in the experiment with U937 [1], in the experiment with CMS, with M07e, with MV4-11 [2] and in the experiment with CHRF288-11 [3] was greater than 10 µM each time. The EC50 in the experiment on CMK was greater than 10 µM; with MOLM-13 [7] it was 0.002 µM.
`CC[C@H](C)C(=O)O[C@H]1C[C@@H](C)C=C2C=C[C@H](C)[C@H](CC[C@@H]3C[C@@H](O)CC(=O)O3)[C@H]21` [LOVASTATIN]: the EC50 in the experiment on ML-2, in the experiment on U937 [1], in the experiment with CMS, in the experiment with M07e, in the experiment with MV4-11 [2] and with CMK was greater than 10 µM throughout. In addition, the EC50 in the experiment on MOLM-13 [7] was greater than 10 µM; in the experiment on CHRF288-11 [8], 6.3 µM.
Regarding `Cc1ccc(NC(=O)c2ccc(CN3CCN(C)CC3)cc2)cc1Nc1nc(-c2cccnc2)cs1` [MASITINIB], the EC50 in the experiment with ML-2, with CMS, in the experiment on M07e, in the experiment with CHRF288-11 [3], with CMK and with MV4-11 [5] was greater than 10 µM in each case. For the same molecule, the EC50 with U937 [6] and with MOLM-13 [4] was greater than 10 µM each time.
On to `CC[C@H](C)C(=O)O[C@H]1CCC=C2C=C[C@H](C)[C@H](CC[C@@H]3C[C@@H](O)CC(=O)O3)[C@H]21` [MEVASTATIN], for which the EC50 in the experiment with ML-2, with U937 [1], in the experiment with CMS, in the experiment on M07e, with MV4-11 [2] and with CMK was greater than 10 µM in each case. Further, the EC50 worked out at 8.9 µM in the experiment with MOLM-13 [7] and 6.6 µM in the experiment on CHRF288-11 [8].
As to `CCc1nc(N)nc(N)c1-c1ccc(Cl)cc1` [PYRIMETHAMINE], the EC50 with ML-2, with U937 [1], in the experiment with CMS, with M07e, in the experiment on CHRF288-11 [3] and in the experiment with CMK was greater than 10 µM in each case. Besides, the EC50 in the experiment on MV4-11 [5] was greater than 10 µM; in the experiment on MOLM-13 [7] it was 4.5 µM.
With `CNC(=O)c1cc(Oc2ccc(NC(=O)Nc3ccc(Cl)c(C(F)(F)F)c3)c(F)c2)ccn1` [REGORAFENIB], the EC50 with ML-2, in the experiment with U937 [1], in the experiment with CMS, with M07e, in the experiment with CHRF288-11 [3] and with CMK was greater than 10 µM in each case. The EC50 in the experiment with MV4-11 [5] amounted to 0.34 µM; with MOLM-13 [7], 1.5 µM.
`Oc1ccc(/C=C/c2cc(O)cc(O)c2)cc1` [RESVERATROL]: the EC50 in the experiment with ML-2, in the experiment with U937 [1], in the experiment with CMS, in the experiment with M07e, with CHRF288-11 [3] and with CMK was greater than 10 µM in each case. The EC50 in the experiment with MV4-11 [5] is greater than 10 µM; in the experiment on MOLM-13 [7] it was 8.9 µM.
On to `CC(C(=O)Nc1cccc(/N=C/c2c(O)ccc3ccccc23)c1)c1ccccc1` (stereo not shown) [SALERMIDE], for which the EC50 in the experiment on ML-2, with CMS, in the experiment on M07e, with MV4-11 [2], with CHRF288-11 [3] and in the experiment with CMK was greater than 10 µM in each case. The values for the EC50 with U937 [6] and in the experiment on MOLM-13 [7] were 6.6 µM and 7 µM, respectively.
Regarding `CCCC(CCC)C(=O)O` [VALPROATE SODIUM], the EC50 in the experiment with ML-2, in the experiment on U937 [1], in the experiment on CMS, in the experiment on M07e, in the experiment with MV4-11 [2] and in the experiment with CHRF288-11 [3] was greater than 10 µM in each case. The EC50 in the experiment on CMK was greater than 10 µM; in the experiment with MOLM-13 [7], 0.077 µM.
